Reference: US11739070B2, “C5A receptor modulators” (IDORSIA PHARMACEUTICALS LTD, priority 2018, dated 2023)
pIC50: −log10 of the molar value.

Biological target: T1, C5AR1 (Homo sapiens, UniProt P21730)
T1 construct: host or cells: CHO-K1
T1 sequence (P21730 1-350): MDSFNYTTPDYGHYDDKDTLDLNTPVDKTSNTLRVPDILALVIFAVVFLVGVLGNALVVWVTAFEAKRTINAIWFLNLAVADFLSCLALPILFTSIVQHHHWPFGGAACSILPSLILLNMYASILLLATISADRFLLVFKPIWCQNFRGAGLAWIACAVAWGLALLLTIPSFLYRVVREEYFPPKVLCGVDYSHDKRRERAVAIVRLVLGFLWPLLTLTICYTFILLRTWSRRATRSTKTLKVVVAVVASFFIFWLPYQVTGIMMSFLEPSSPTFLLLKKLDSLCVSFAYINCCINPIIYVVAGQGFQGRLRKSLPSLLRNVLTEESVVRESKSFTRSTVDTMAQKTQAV
Assay: hC5a DISCO IC50 assay (PathHunter beta-arrestin, antagonist mode)
Type: cell-based
Details: CHO-K1 C5AR1 beta-arrestin cell line; antagonist vs 1-10 nM C5a agonist; geometric mean values; read-out: C5aR IC50
Procedure, shortened: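 Antagonist added first, then 1-10 nM C5a agonist; cells incubated 1.5 h at 37 °C. Beta-arrestin signal developed with PathHunter detection reagent, 45 min at RT. IC50 in nmol/l from serial antagonist dilutions, reported as geometric mean of several measurements.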

Structure (SMILES) | pIC50
COc1ncncc1Cn1c(=O)n(C2CCN(c3c(F)cccc3C#N)CC2)c2cccc(OC)c21 [Example 113, 3-Fluoro-2-{4-[4-methoxy-3-(4-methoxy-pyrimidin-5-ylmethyl)-2-oxo-2,3-dihydro-benzoimidazol-1-yl]-piperidin-1-yl}-benzonitrile] | 5.65
COc1ncncc1Cn1c(=O)n([C@@H]2CCN(c3c(F)cccc3C#N)C2)c2cccc(OC)c21 [Example 114, 3-Fluoro-2-{(R)-3-[4-methoxy-3-(4-methoxy-pyrimidin-5-ylmethyl)-2-oxo-2,3-dihydro-benzoimidazol-1-yl]-pyrrolidin-1-yl}-benzonitrile] | 5.81
COc1cccc2c1n(Cc1ccccc1C(F)(F)F)c(=O)n2[C@@H]1CCN(c2c(F)cccc2CN2CCOCC2)C1 [Example 115, 1-[(R)-1-(2-Fluoro-6-morpholin-4-ylmethyl-phenyl)-pyrrolidin-3-yl]-4-methoxy-3-(2-trifluoromethyl-benzyl)-1,3-dihydro-benzoimidazol-2-one] | 7.68
COc1cccc2c1n(Cc1ccccc1C(F)(F)F)c(=O)n2[C@@H]1CCN(c2c(F)cccc2CN2CCCC2)C1 [Example 116, 1-[(R)-1-(2-Fluoro-6-pyrrolidin-1-ylmethyl-phenyl)-pyrrolidin-3-yl]-4-methoxy-3-(2-trifluoromethyl-benzyl)-1,3-dihydro-benzoimidazol-2-one] | 6.78
COc1cccc2c1n(Cc1cncnc1C(F)(F)F)c(=O)n2C1CCN(c2c(F)cccc2C#N)CC1 [Example 117, 3-Fluoro-2-{4-[4-methoxy-2-oxo-3-(4-trifluoromethyl-pyrimidin-5-ylmethyl)-2,3-dihydro-benzoimidazol-1-yl]-piperidin-1-yl}-benzonitrile] | 6.51
Cc1cccc(C)c1N1CC[C@@H](n2c(=O)n(Cc3ccccc3C(F)(F)F)c3c(NCCO)nccc32)C1 [Example 118, 1-[(R)-1-(2,6-Dimethyl-phenyl)-pyrrolidin-3-yl]-4-(2-hydroxy-ethylamino)-3-(2-trifluoromethyl-benzyl)-1,3-dihydro-imidazo[4,5-c]pyridin-2-one] | 6.70
Cc1cccc(C)c1N1CC[C@@H](n2c(=O)n(Cc3ccccc3C(F)(F)F)c3c(OCCO)nccc32)C1 [Example 119, 1-[(R)-1-(2,6-Dimethyl-phenyl)-pyrrolidin-3-yl]-4-(2-hydroxy-ethoxy)-3-(2-trifluoromethyl-benzyl)-1,3-dihydro-imidazo[4,5-c]pyridin-2-one] | 7.92
Cc1cccc(F)c1N1CC[C@@H](n2c(=O)n(Cc3ccccc3C(F)(F)F)c3c(OCCN(C)C)nccc32)C1 [Example 120, 4-(2-Dimethylamino-ethoxy)-1-[(R)-1-(2-fluoro-6-methyl-phenyl)-pyrrolidin-3-yl]-3-(2-trifluoromethyl-benzyl)-1,3-dihydro-imidazo[4,5-c]pyridin-2-one] | 6.18
Cc1cccc(F)c1N1CC[C@@H](n2c(=O)n(Cc3ccccc3C(F)(F)F)c3c(OCCN4CCOCC4)nccc32)C1 [Example 121, 1-[(R)-1-(2-Fluoro-6-methyl-phenyl)-pyrrolidin-3-yl]-4-(2-morpholin-4-yl-ethoxy)-3-(2-trifluoromethyl-benzyl)-1,3-dihydro-imidazo[4,5-c]pyridin-2-one] | 6.57
Cc1cccc(F)c1N1CC[C@@H](n2c(=O)n(Cc3ccccc3C(F)(F)F)c3c(OC4CCN(C(=O)OC(C)(C)C)CC4)nccc32)C1 [Example 122, 4-[1-[(R)-1-(2-Fluoro-6-methyl-phenyl)-pyrrolidin-3-yl]-2-oxo-3-(2-trifluoromethyl-benzyl)-2,3-dihydro-1H-imidazo[4,5-c]pyridin-4-yloxy]-piperidine-1-carboxylic acid tert-butyl ester] | 6.29
Cc1cccc(F)c1N1CC[C@@H](n2c(=O)n(Cc3ccccc3C(F)(F)F)c3c(N(C)CCO)nccc32)C1 [Example 123, 1-[(R)-1-(2-Fluoro-6-methyl-phenyl)-pyrrolidin-3-yl]-4-[(2-hydroxy-ethyl)-methyl-amino]-3-(2-trifluoromethyl-benzyl)-1,3-dihydro-imidazo[4,5-c]pyridin-2-one] | 7.38
Cc1cccc(F)c1N1CC[C@@H](n2c(=O)n(Cc3ccccc3C(F)(F)F)c3c(OC4CCNCC4)nccc32)C1 [Example 124, 1-[(R)-1-(2-Fluoro-6-methyl-phenyl)-pyrrolidin-3-yl]-4-(piperidin-4-yloxy)-3-(2-trifluoromethyl-benzyl)-1,3-dihydro-imidazo[4,5-c]pyridin-2-one] | 5.28
Cc1cccc(F)c1N1CC[C@@H](n2c(=O)n(Cc3ccccc3C(F)(F)F)c3c(OCC4COC(C)(C)O4)nccc32)C1 (stereo partly drawn) [Example 125, 4-(2,2-Dimethyl-[1,3]dioxolan-4-ylmethoxy)-1-[(R)-1-(2-fluoro-6-methyl-phenyl)-pyrrolidin-3-yl]-3-(2-trifluoromethyl-benzyl)-1,3-dihydro-imidazo[4,5-c]pyridin-2-one] | 6.91
COc1cccc2c1n(Cc1ccccc1C(F)(F)F)c(=O)n2[C@@H]1CCN(c2c(F)cccc2CC=O)C1 [Example 126, (3-Fluoro-2-{(R)-3-[4-methoxy-2-oxo-3-(2-trifluoromethyl-benzyl)-2,3-dihydro-benzoimidazol-1-yl]-pyrrolidin-1-yl}-phenyl)-acetaldehyde] | 7.70
Cc1cccc(F)c1N1CC[C@@H](n2c(=O)n(Cc3ccccc3C(F)(F)F)c3c(OC4COC4)nccc32)C1 [Example 127, 1-[(R)-1-(2-Fluoro-6-methyl-phenyl)-pyrrolidin-3-yl]-4-(oxetan-3-yloxy)-3-(2-trifluoromethyl-benzyl)-1,3-dihydro-imidazo[4,5-c]pyridin-2-one] | 7.77
Cc1cccc(F)c1N1CC[C@@H](n2c(=O)n(Cc3ccccc3C(F)(F)F)c3c(OCC(O)CO)nccc32)C1 (stereo partly drawn) [Example 128, 4-(2,3-Dihydroxy-propoxy)-1-[(R)-1-(2-fluoro-6-methyl-phenyl)-pyrrolidin-3-yl]-3-(2-trifluoromethyl-benzyl)-1,3-dihydro-imidazo[4,5-c]pyridin-2-one] | 6.68
Cc1cccc(F)c1N1CC[C@@H](n2c(=O)n(Cc3ccccc3C(F)(F)F)c3c(N4CCOCC4)nccc32)C1 [Example 129, 1-[(R)-1-(2-Fluoro-6-methyl-phenyl)-pyrrolidin-3-yl]-4-morpholin-4-yl-3-(2-trifluoromethyl-benzyl)-1,3-dihydro-imidazo[4,5-c]pyridin-2-one] | 7.28

Now from value to compound:

pIC50 | Structure (SMILES)
5.41 | Cc1cccc(F)c1N1CC[C@@H](n2c(=O)n(Cc3ccccc3C(F)(F)F)c3c(OC4CCN(C)C4)nccc32)C1 (stereo partly drawn) [Example 130, 1-[(R)-1-(2-Fluoro-6-methyl-phenyl)-pyrrolidin-3-yl]-4-(1-methyl-pyrrolidin-3-yloxy)-3-(2-trifluoromethyl-benzyl)-1,3-dihydro-imidazo[4,5-c]pyridin-2-one]
7.28 | COc1cccc2c1n(Cc1ccccc1C(F)(F)F)c(=O)n2[C@@H]1CCN(c2c(F)cccc2CCN2CCOCC2)C1 [Example 131, 1-{(R)-1-[2-Fluoro-6-(2-morpholin-4-yl-ethyl)-phenyl]-pyrrolidin-3-yl}-4-methoxy-3-(2-trifluoromethyl-benzyl)-1,3-dihydro-benzoimidazol-2-one]
6.50 | COc1cccc2c1n(Cc1ccccc1C(F)(F)F)c(=O)n2[C@@H]1CCN(c2c(F)cccc2CN2CCN(C)CC2)C1 [Example 132, 1-{(R)-1-[2-Fluoro-6-(4-methyl-piperazin-1-ylmethyl)-phenyl]-pyrrolidin-3-yl}-4-methoxy-3-(2-trifluoromethyl-benzyl)-1,3-dihydro-benzoimidazol-2-one]
7.15 | COc1cccc2c1n(Cc1ccccc1C(F)(F)F)c(=O)n2[C@@H]1CCN(c2c(F)cccc2CN2CCCCC2)C1 [Example 133, 1-[(R)-1-(2-Fluoro-6-piperidin-1-ylmethyl-phenyl)-pyrrolidin-3-yl]-4-methoxy-3-(2-trifluoromethyl-benzyl)-1,3-dihydro-benzoimidazol-2-one]
5.64 | COc1cccc2c1n(Cc1ccccc1C(F)(F)F)c(=O)n2[C@@H]1CCN(c2c(F)cccc2CN2CCC(O)CC2)C1 [Example 134, 1-{(R)-1-[2-Fluoro-6-(4-hydroxy-piperidin-1-ylmethyl)-phenyl]-pyrrolidin-3-yl}-4-methoxy-3-(2-trifluoromethyl-benzyl)-1,3-dihydro-benzoimidazol-2-one]
5.24 | COc1cccc2c1n(Cc1ccccc1C(F)(F)F)c(=O)n2[C@@H]1CCN(c2c(F)cccc2CN2CCNCC2)C1 [Example 135, 1-[(R)-1-(2-Fluoro-6-piperazin-1-ylmethyl-phenyl)-pyrrolidin-3-yl]-4-methoxy-3-(2-trifluoromethyl-benzyl)-1,3-dihydro-benzoimidazol-2-one]
5.80 | COc1cccc2c1n(Cc1ccccc1C(F)(F)F)c(=O)n2[C@@H]1CCN(c2c(F)cccc2CN2CCC(N(C)C)CC2)C1 [Example 136, 1-{(R)-1-[2-(4-Dimethylamino-piperidin-1-ylmethyl)-6-fluoro-phenyl]-pyrrolidin-3-yl}-4-methoxy-3-(2-trifluoromethyl-benzyl)-1,3-dihydro-benzoimidazol-2-one]
6.88 | COc1cccc2c1n(Cc1ccccc1C(F)(F)F)c(=O)n2[C@@H]1CCN(c2c(F)cccc2CN2CCC(OC)CC2)C1 [Example 137, 1-{(R)-1-[2-Fluoro-6-(4-methoxy-piperidin-1-ylmethyl)-phenyl]-pyrrolidin-3-yl}-4-methoxy-3-(2-trifluoromethyl-benzyl)-1,3-dihydro-benzoimidazol-2-one]
